Laboratory results taken from patent US10028961B2, “Therapeutically active compounds and their methods of use” (AGIOS PHARMACEUTICALS, INC., priority 2013, dated 2018).

Assays:
[1] = biological target: IDH1 R132C (Homo sapiens (Human), UniProt O75874, R132C); test: In vitro assay IDH1 R132C homodimer, NADPH depletion assay; assay type: biochemical
Experimental: (§1) The following describes the experimental procedures that can be used to obtain data on columns 3 and 6 of Table 4.
(§2) A test compound is prepared as 10 mM stock in DMSO and diluted to 50× final concentration in DMSO, for a 50 μl reaction mixture. IDH enzyme activity converting alpha-ketoglutarate to 2-hydroxyglutaric acid is measured using a NADPH depletion assay. In the assay the remaining cofactor is measured at the end of the reaction with the addition of a catalytic excess of diaphorase and resazurin, to generate a fluorescent signal in proportion to the amount of NADPH remaining. […] The reaction is started with the addition of 10 μl of Substrate Mix ([…], 5 mM alpha-ketoglutarate, in Assay Buffer) and the mixture is incubated for 90 minutes at room temperature.
The concentration of NADPH and alpha-ketoglutarate in the Substrate Buffer is 20 μM and 1 mM, respectively.

[2] = biological target: IDH1-R132 homodimer enzyme (R132H) (Homo sapiens (Human), UniProt O75874, R132H); test: In vitro assay IDH1-R132H homodimer, NADPH depletion assay; assay type: biochemical
IDH1-R132 homodimer enzyme (R132H), sequence (O75874 whole entry R132H): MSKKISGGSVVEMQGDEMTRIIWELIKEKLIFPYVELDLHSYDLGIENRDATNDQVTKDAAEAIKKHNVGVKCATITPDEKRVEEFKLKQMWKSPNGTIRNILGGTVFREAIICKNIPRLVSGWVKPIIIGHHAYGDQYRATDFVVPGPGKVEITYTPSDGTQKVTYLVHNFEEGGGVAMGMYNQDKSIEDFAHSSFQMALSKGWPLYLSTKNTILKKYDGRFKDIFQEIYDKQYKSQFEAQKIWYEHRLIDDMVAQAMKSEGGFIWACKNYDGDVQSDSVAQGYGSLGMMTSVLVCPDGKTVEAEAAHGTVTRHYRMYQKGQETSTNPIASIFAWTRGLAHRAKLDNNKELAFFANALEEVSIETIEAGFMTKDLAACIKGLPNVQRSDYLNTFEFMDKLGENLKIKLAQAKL
Experimental: as §1, §2

[3] = system: U87MG pLVX-IDH2 R140Q-neo cells; test: U87MG pLVX-IDH2 R140Q-neo cell based assay, 2-HG by LC-MS; conditions: Homo sapiens, U-87 MG
[4] = biological target: IDH1 wt/IDH1 R132H heterodimer (Homo sapiens (Human), UniProt O75874, R132H); test: In vitro assay for IDH1m R132H inhibitors, IDH1 wt/IDH1 R132H heterodimer, NADPH depletion (diaphorase/resazurin); assay type: biochemical; conditions: IDH1 wt/R132H heterodimer, NADPH/NADP, not saturated; read-out: IDH1 wt/R132H NADPH/NADP IC50 not saturated
IDH1 wt/IDH1 R132H heterodimer, sequence (O75874 whole entry R132H): as above
IDH1 wt/IDH1 R132H heterodimer, sequence (O75874 whole entry, stated change not applied): as the sequence (O75874 whole entry R132H) above, with H132R counted along it
How it was run: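 Read-out is NADPH left after α-KG reduction to 2-HG, measured via resorufin fluorescence after 5 min diaphorase/resazurin step at 25° C. Enzyme is sf9-expressed IDH1wt-his/IDH1R132H-flag heterodimer, pre-incubated 1 hr at room temperature with compound and cofactor. IC50s from DMSO stocks diluted 1:50.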

[5] = biological target: IDH2 R140Q (Homo sapiens (Human), UniProt P48735, R140Q); test: In vitro assay for IDH2m R140Q inhibitors, cofactor depletion assay; assay type: biochemical; conditions: IDH2 R140Q enzyme
IDH2 R140Q, sequence (P48735 40-452 R140Q): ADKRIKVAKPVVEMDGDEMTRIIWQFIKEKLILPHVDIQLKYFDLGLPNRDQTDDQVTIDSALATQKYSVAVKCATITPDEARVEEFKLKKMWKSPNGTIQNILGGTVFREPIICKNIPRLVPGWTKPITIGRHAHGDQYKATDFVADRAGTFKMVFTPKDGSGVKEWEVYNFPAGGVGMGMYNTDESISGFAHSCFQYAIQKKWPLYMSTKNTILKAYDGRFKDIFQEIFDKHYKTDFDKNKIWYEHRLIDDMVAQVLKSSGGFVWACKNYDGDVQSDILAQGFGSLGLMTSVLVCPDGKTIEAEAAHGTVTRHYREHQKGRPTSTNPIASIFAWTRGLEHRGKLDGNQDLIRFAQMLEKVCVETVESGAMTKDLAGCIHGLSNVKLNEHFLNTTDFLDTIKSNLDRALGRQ
How it was run: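 Remaining cofactor measured fluorimetrically: diaphorase/resazurin Stop Mix […], halting the reaction. Before that, mutant enzyme and compound sat 1 h at RT, then substrate mix (4 μM NADPH, 1.6 mM α-KG) was added for 16 h at RT.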

[6] = biological target: IDH1 wt/IDH1 R132C heterodimer (Homo sapiens (Human), UniProt O75874, R132C); test: In vitro assay for IDH1m R132C inhibitors, IDH1 wt/IDH1 R132C heterodimer, NADPH depletion (diaphorase/resazurin); assay type: biochemical; conditions: NADPH/NADP
IDH1 wt/IDH1 R132C heterodimer, sequence (O75874 whole entry R132C): as the sequence (O75874 whole entry R132H) above, with H132C counted along it
IDH1 wt/IDH1 R132C heterodimer, sequence (O75874 whole entry, stated change not applied): as the sequence (O75874 whole entry R132H) above, with H132R counted along it
Experimental: The following describes the experimental procedures that can be used to obtain data on columns 2 and 4 of Table 4 and column 2 of Table 5.
In the primary reaction, the reduction of α-KG acid to 2-HG is accompanied by a concomitant oxidation of NADPH to NADP. The amount of NADPH remaining at the end of the reaction time is measured in a secondary diaphorase/resazurin reaction in which the NADPH is consumed in a 1:1 molar ratio with the conversion of resazurin to the highly fluorescent resorufin.
The mixture of compound, enzyme, and cofactor is pre-incubated at room temperature for 1 hr prior to the addition of alpha-ketoglutarate. To perform the secondary reaction, 10 uL of 1× buffer containing 36 μg/ml diaphorase and […] resazurin is added to the primary reaction and incubated for a further 5 minutes at 25° C. Florescence is read on a Spectramax platereader at Ex 544 Em 590. Compounds or compound dilutions are prepared in 100% DMSO concentration and diluted 1:50 into the final reaction. […] IC50s are determined.
IDH1 or IDH2 wildtype (wt) and mutant heterodimers are expressed and purified by methods known in the art. For example, IDH1wt/R132m heterodimer is expressed and purified as follows. Co-expression of IDH1wt-his and IDH1R132C-flag is carried out in sf9 insect cells. Cells (25 g) are resuspended in 250 ml of 50 mM Tirs, 500 mM NaCl, pH7.4, at 4° C. with stirring. Cells are disrupted with 4 passes through an M-Y110 Micro fluidizer (Microfluidics) set to 500 psi, and then centrifuged at 22,000 rcf for 20 min at 4° C. The supernatant is harvested and loaded at 15 cm/h on a Histrap FF 5*1 ml column (GE) which is equilibrated with 50 mM Tirs, 500 mM NaCl, pH7.4. Host cell contaminants are removed by washing the column with equilibration buffer followed by equilibration buffer containing 20 mM imidazole and 60 mM imidazole to baseline. IDH1wt-his homodimer and IDH1wt-his/IDH1R132C-flag are eluted by equilibration buffer containing 250 mM imidazole. Fractions eluted by 250 mM imidazole are pooled together and loaded at 15 cm/h onto a column pre-packed with 10 ml ANTI-FLAG® M2 Affinity Gel (Sigma), the column is equilibrated with 50 mM Tris, 500 mM NaCl, pH7.4. After washing with equilibration buffer, IDH1wt-his/IDH1R132C-flag heterodimer is eluted by equilibration buffer containing flag peptide (0.2 mg/ml). Aliquots of IDH1wt-his/IDH1R132C-flag are flash frozen in liquid N2 and stored at −80° C. Same conditions are used for the purification of IDH1wt-his/IDH1R132H-flag.

[7] = system: HT1080 cells; test: Cellular assay for IDH1m R132C inhibitors, 2-HG by LC-MS in HT1080 cells; assay type: cell-based; conditions: Homo sapiens, HT-1080
How it was run: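 2-HG levels were measured by LC-MS in culture medium sampled 48 h after compound addition (0.2% DMSO) to HT1080 cells seeded overnight at 5000 cells/well. A CellTiter-Glo luminescence read at 72 h gave cell viability.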

[8] = biological target: IDH1-R132H homodimer enzyme (Homo sapiens (Human), UniProt O75874, R132H); test: In vitro assay IDH1-R132H homodimer, NADPH depletion assay with NADPH/NADP preincubation; assay type: biochemical; conditions: 5 μM NADPH and 37.5 μM NADP
IDH1-R132H homodimer enzyme, sequence (O75874 whole entry R132H): as the sequence (O75874 whole entry R132H) above
How it was run: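 Compounds were added from DMSO at 50× final concentration, and the mutant enzyme was incubated 60 min at room temperature after starting with a substrate mix holding NADPH and 5 mM alpha-ketoglutarate. Residual cofactor, read by fluorescence after excess diaphorase and resazurin, reflects enzyme turnover.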

IDH1 R132C, sequence (O75874 whole entry R132C): as the sequence (O75874 whole entry R132H) above, with H132C counted along it

Row | Structure (SMILES) | IC50 [1] | IC50 [2] | also measured
1 | CC(C)Nc1nc(NC(C)C)nc(-c2cccc(C(F)(F)F)n2)n1 [Compound 3] | 50 to 100 nM | 100 to 1000 nM | –
2 | C[C@@H](Nc1nc(NCC(N)=O)nc(-c2cccc(C(F)(F)F)n2)n1)C1CC1 [Compound 5] | – | > 1000 nM | IDH1 R132C IC50 [1]: No Fit
3 | C[C@@H](Nc1nc(N[C@H](C)C2CC2)nc(-c2ccccc2F)n1)C1CC1 [Compound 6] | 100 to 1000 nM | > 1000 nM | –
4 | CC(=O)CNc1nc(N[C@H](C)C2CC2)nc(-c2cccc(C(F)(F)F)n2)n1 [Compound 15] | > 1000 nM | > 1000 nM | –
5 | C[C@@H](Nc1nc(N[C@@H]2C[C@H]2c2ccccc2)nc(-c2cccc(C(F)(F)F)n2)n1)C1CC1 [Compound 23] | 50 to 100 nM | 50 to 100 nM | –
6 | C[C@@H](Nc1nc(NCc2ccccn2)nc(-c2cccc(C(F)(F)F)n2)n1)C1CC1 [Compound 24, (R)-N^2-(1-cyclopropylethyl)-N^4-(pyridin-2-ylmethyl)-6-(6-(trifluoro-methyl)pyridin-2-yl)-1,3,5-triazine-2,4-diamine] | > 1000 nM | > 1000 nM | –
7 | CC(Nc1nc(N[C@H](C)C2CC2)nc(-c2cccc(C(F)(F)F)n2)n1)c1ccccn1 (stereo partly drawn) [Compound 25, N^2-((R)-1-cyclopropylethyl)-N^4-(1-(pyridin-2-yl)ethyl)-6-(6-(trifluoromethyl)pyridin-2-yl)-1,3,5-triazine-2,4-diamine] | > 1000 nM | > 1000 nM | –
8 | CC(Nc1nc(N[C@H](C)C2CC2)nc(-c2cccc(C(F)(F)F)n2)n1)c1cccc(C(F)(F)F)c1 (stereo partly drawn) [Compound 27] | 100 to 1000 nM | 50 to 100 nM | –
9 | C[C@@H](Nc1nc(NC(=O)c2ccccc2)nc(-c2cccc(C(F)(F)F)n2)n1)C1CC1 [Compound 29] | > 1000 nM | 100 to 1000 nM | –
10 | COc1ccc(F)c(-c2nc(NC(C)C)nc(NC(C)(C)C#N)n2)c1 [Compound 32] | > 1000 nM | > 1000 nM | –
11 | CC(C)Nc1nc(NC(C)(C)C#N)nc(-c2cc(O)ccc2F)n1 [Compound 35] | > 1000 nM | > 1000 nM | –
12 | C[C@@H](Nc1nc(NC(C)(C)C#N)nc(-c2cccc(C(F)(F)F)n2)n1)C1CC1 [Compound 37] | > 1000 nM | 50 to 100 nM | –
13 | C[C@@H](Nc1nc(NC2CCOC2)nc(-c2cccc(C(F)(F)F)n2)n1)C1CC1 (stereo partly drawn) [Compound 38] | 100 to 1000 nM | 50 to 100 nM | –
14 | CC(C#N)Nc1nc(N[C@H](C)C2CC2)nc(-c2cccc(C(F)(F)F)n2)n1 (stereo partly drawn) [Compound 40] | 50 to 100 nM | 50 to 100 nM | –
15 | FC1(F)CCC(Nc2nc(NC3CCC(F)(F)CC3)nc(-c3cccc(C(F)(F)F)n3)n2)CC1 [Compound 41] | > 1000 nM | 50 to 100 nM | –
16 | C[C@@H](Nc1nc(N[C@H]2CCCC[C@@H]2O)nc(-c2cccc(C(F)(F)F)n2)n1)C1CC1 [Compound 42] | 100 to 1000 nM | 50 to 100 nM | –
17 | C[C@@H](Nc1nc(N[C@H]2CCC[C@H]2O)nc(-c2cccc(C(F)(F)F)n2)n1)C1CC1 [Compound 43] | > 1000 nM | 100 to 1000 nM | –
18 | Fc1cc(F)cc(Nc2nc(NC3CCC(F)(F)CC3)nc(-c3nc(F)ccc3F)n2)c1 [Compound 260] | – | – | IC50 [3]: < 50 nM; IC50 [4]: 100 to 1000 nM; IC50 [5]: < 50 nM; IC50 [6]: 50 to 100 nM; IC50 [7]: > 1000 nM
19 | FC1(F)CCC(Nc2nc(NC3CCC(F)(F)CC3)nc(-c3ccnc(C(F)(F)F)n3)n2)CC1 [Compound 270] | – | – | IC50 [3]: 100 to 1000 nM; IC50 [8]: > 1000 nM; IC50 [4]: 100 to 1000 nM; IC50 [5]: 100 to 1000 nM; IC50 [6]: 100 to 1000 nM
20 | C[C@@H](Nc1nc(N[C@H](C)C2CC2)nc(-n2cc(I)cn2)n1)C1CC1 [Compound 279] | – | – | IC50 [3]: 100 to 1000 nM; IC50 [8]: > 1000 nM; IC50 [4]: 100 to 1000 nM; IC50 [5]: 100 to 1000 nM; IC50 [6]: 100 to 1000 nM
21 | FC1(F)CCC(Nc2nc(NC3CCC(F)(F)CC3)nc(-n3cc(Cl)cn3)n2)CC1 [Compound 302] | – | – | IC50 [3]: 100 to 1000 nM; IC50 [8]: > 1000 nM; IC50 [4]: 100 to 1000 nM; IC50 [5]: 100 to 1000 nM; IC50 [6]: 100 to 1000 nM
22 | FC(F)(F)c1cccc(-c2nc(NCC3CC3)cc(NCC3CC3)n2)n1 [Compound 419] | – | > 1000 nM | IC50 [3]: 100 to 1000 nM; IC50 [8]: 100 to 1000 nM
